Laboratory results as given in patent US7183054B2, “Assay for identifying biological targets of polynucleotide-binding compounds” (President and Fellows of Harvard College, priority 2003, dated 2007).

What was measured:
[1] = biological target: T1, HMG1 (Bos taurus, UniProt P10103); assay: Affinity chromatography with drug-alkylated dsDNA resin in bovine brain lysate (HMG1); type: binding; conditions: ds-oligonucleotide resin alkylated with drug; pre-cleared bovine brain lysate
T1 construct: from tissue; host or cells: bovine brain homogenate
T1 sequence (P10103 1-215): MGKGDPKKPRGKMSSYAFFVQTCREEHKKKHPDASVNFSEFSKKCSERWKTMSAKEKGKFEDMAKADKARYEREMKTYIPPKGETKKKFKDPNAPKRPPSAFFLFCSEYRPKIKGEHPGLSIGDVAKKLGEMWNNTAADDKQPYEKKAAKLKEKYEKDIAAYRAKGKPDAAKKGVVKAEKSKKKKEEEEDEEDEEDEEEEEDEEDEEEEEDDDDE
Experimental: FIG. 4 is a photograph of a silver-stained SDS-PA gel showing the affinity chromatography results. The affinity matrix was incubated in bovine brain lysate at 4° C., washed extensively, and heat denatured to release bound proteins. […]
(§1) Construction of Drug-based Affinity Resin. […] The amount of drug coupled to the affinity resin was determined by quantifying the drug that remained in the supernatant using reverse-phase HPLC. […] The supernatant solution was analyzed by reverse-phase HPLC. The amount of ds-oligonucleotide detected in the supernatant from the heating step was taken to be the amount of ds-oligonucleotide coupled to drug on the affinity resin in the form of stable dsDNA-drug binary complex. […] The concentration of double-stranded 21-mer DNA on the resin was determined by heat denaturing the double strand DNA on a known amount of resin and subsequently determining the concentration of complementary strand in free solution by UV spectrometry. […]

[2] = biological target: T2, GAPDH (Bos taurus, UniProt P10096); assay: Affinity chromatography with drug-alkylated dsDNA resin in bovine brain lysate (GAPDH); type: binding; conditions: ds-oligonucleotide resin alkylated with drug; bovine brain lysate, 4° C.; silver-stained SDS-PAGE
T2 construct: from tissue; host or cells: bovine brain homogenate

[3] = tested on: A549 lung carcinoma; conditions: A549 lung carcinoma tumor cell line; cited from earlier work
[4] = tested on: A375 melanoma; conditions: A375 melanoma tumor cell line; cited from earlier work
[5] = tested on: GAPDH; assay: Affinity chromatography with drug-alkylated dsDNA resin in bovine brain lysate (GAPDH); type: binding; conditions: summary statement
[6] = biological target: T3, Human erythrocyte GAPDH (Homo sapiens, UniProt P04406); assay: Southwestern blot of GAPDH with 32P-labeled dsDNA-drug complexes; type: binding; conditions: membrane probed with 32P labeled DNA alkylated with drug
T3 construct: Human erythrocyte GAPDH (Sigma 6019) was dissovled in ddH2O; purchased Sigma 6019 (G6019); host or cells: human erythrocytes
Experimental: FIG. 5 depicts the Southwestern blot technique using GAPDH and saframycins. FIG. 5A is a schematic of the Southwestern blot technique. […] The membranes with GAPDH were incubated with the various ^32P-labeled dsDNA-drug complexes. Lane 1: free dsDNA control; Lane 2: HQ alkylated dsDNA; Lane 3: QAD alkylated dsDNA; Lane 4: Pt 650 alkylated dsDNA; Lane 5: SafA alkylated dsDNA.
as §1, with “Resin. The amino-modified QAD and its hemiaminal derivative, amino-modified HQ was prepared by coupling SafA synthetic intermediate^11 with 6-(4-Fmoc-amino-n-butoxy)-quinaldic acid followed by Fmoc deprotection. The amino-modified QAD/HQ was purified by reverse-phase HPLC and coupled to AffiGel-15.” for “Resin.”

[7] = tested on: A549 cells; assay: GI50 in GAPDH siRNA transfected A549 cells (MTS); type: cell-based; conditions: 72 hours drug exposure

T2 sequence (P10096 2-333): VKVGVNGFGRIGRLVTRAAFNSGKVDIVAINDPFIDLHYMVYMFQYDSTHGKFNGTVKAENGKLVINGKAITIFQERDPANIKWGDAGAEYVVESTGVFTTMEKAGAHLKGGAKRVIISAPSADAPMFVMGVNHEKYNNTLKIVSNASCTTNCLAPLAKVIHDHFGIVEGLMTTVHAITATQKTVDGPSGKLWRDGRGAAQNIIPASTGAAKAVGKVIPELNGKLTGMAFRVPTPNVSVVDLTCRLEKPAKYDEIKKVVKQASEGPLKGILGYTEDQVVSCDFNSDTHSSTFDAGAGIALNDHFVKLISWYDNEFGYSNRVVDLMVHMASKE
T3 sequence (P04406 whole entry): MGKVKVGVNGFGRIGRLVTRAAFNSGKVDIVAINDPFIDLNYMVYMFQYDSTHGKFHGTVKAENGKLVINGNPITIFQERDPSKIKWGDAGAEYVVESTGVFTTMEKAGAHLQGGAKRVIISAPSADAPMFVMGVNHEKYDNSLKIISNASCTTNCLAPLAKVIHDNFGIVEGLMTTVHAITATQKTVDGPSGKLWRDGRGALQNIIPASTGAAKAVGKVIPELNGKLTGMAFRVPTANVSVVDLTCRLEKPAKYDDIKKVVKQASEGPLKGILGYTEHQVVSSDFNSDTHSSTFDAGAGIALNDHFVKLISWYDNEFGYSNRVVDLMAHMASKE

Row | SMILES | binding of 31-kDa protein (HMG1) to drug-dsDNA binary complex [1] | binding of 37-kDa protein (GAPDH) to drug-dsDNA binary complex [2] | IC50 [3] | IC50 [4] | cellular target found [5] | radioactivity at GAPDH protein band [6] | GI50 change in GAPDH siRNA transfected cells vs control siRNA [7] | GI50 change in GAPDH siRNA transfected cells vs control siRNA ([7]; listed as cis-platin)
1 | N.N.[Cl][Pt+2][Cl] [transplatin] | did not recruit any protein | did not bind |  |  |  |  |  | 
2 | COc1cc2c(cc1O)CCN[C@]21CS[C@@H]2c3c(OC(C)=O)c(C)c4c(c3[C@H](COC1=O)N1[C@@H]2[C@H]2c3c(cc(C)c(OC)c3O)C[C@@H]([C@@H]1O)N2C)OCO4 [Ecteinascidin 743] |  |  | 1 nM | 0.15 nM | target cellular GAPDH |  |  | 
3 | COc1c(C)cc2c(c1O)[C@@H]1[C@@H]3Cc4c(OC(C)=O)c(C)c5c(c4[C@H](CN4C(=O)c6ccccc6C4=O)N3[C@@H](C#N)[C@H](C2)N1C)OCO5 [Pt 650, phthalascidin] |  | bind specifically |  |  |  | radioactivity was detected |  | 
4 | N.N.[Cl][Pt][Cl] [cisplatin] | bind specifically | did not bind |  |  |  |  | nearly the same sensitivity | unchanged
5 | COC1=C(C)C(=O)C2=C(C1=O)[C@@H]1[C@@H]3CC4=C(C(=O)C(OC)=C(C)C4=O)[C@H](CNC(=O)C(C)=O)N3[C@@H](C#N)[C@H](C2)N1C [(−)-Saframycin A] |  | bind specifically | 133 nM | 5.3 nM | target cellular GAPDH | radioactivity was detected |  | 
